Assay results published in patent US20120088737A2, “NOVEL ACYL GUANIDINE DERIVATIVES” (AJINOMOTO CO., INC, priority 2009, published 2012).
pIC50: −log10 of the molar value.

Assays:
[1] = target: T1, human NHE3 (Homo sapiens, UniProt P48764); experiment: Measurements of NHE3 inhibitory activities (OK26 cells); type: cell-based; conditions: OK26 cells (opossum kidney cells overexpressing human NHE3), measurement time 5 minutes at 37° C.; read-out: hNHE3 IC50
T1 construct: expressed in transfected cells; host or cells: OK26 cells (opossum kidney OK cells); OK26 ND sublines with opNHE1 reduced by 90% for A3
T1 sequence (P48764 26-834): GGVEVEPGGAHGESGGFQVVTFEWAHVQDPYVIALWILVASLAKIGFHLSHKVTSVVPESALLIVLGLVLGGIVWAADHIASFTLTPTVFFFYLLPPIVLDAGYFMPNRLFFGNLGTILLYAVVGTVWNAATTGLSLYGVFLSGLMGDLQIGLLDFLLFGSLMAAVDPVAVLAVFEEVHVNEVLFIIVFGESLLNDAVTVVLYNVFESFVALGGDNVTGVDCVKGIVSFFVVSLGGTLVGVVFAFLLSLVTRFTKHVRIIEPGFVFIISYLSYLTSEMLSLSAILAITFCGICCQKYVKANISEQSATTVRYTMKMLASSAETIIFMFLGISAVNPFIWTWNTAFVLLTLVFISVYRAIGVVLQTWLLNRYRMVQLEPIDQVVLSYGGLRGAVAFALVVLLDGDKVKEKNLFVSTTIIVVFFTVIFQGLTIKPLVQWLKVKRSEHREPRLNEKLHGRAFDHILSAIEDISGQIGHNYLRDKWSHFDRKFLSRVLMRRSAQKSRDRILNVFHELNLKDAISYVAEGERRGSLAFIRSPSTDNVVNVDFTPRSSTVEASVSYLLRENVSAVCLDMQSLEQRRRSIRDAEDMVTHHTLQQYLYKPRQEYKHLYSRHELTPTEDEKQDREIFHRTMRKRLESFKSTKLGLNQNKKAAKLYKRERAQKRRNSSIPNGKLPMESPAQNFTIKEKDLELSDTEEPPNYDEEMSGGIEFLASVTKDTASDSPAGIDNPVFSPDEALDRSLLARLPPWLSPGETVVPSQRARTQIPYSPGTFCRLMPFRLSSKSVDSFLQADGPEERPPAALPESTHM
Description: (§1) HLF cells (Human hepatoma cell line) were used as cells for the test. After 1×10^4 cells/well were seeded to a 96-well plate and cultured for 3 days, they were cultured overnight under a serum-free medium. Then, the cells were incubated in a stain solution of Tetramethylammonium (TMA) Buffer (130 mM TMA-C1, 5 mM KCl, 2 mM CaCl2, 1 mM MgSO2, 25 mM glucose, 20 mM HEPES; pH 7.4) containing 40 mM NH4Cl and 1 μg/mL pH-sensitive fluorescent indicator BCECF-AM at 37° C. for 40 minutes and then BCECF was introduced into the cells. After the cells were washed once with TMA Buffer and incubated in TMA+40 mM NH4Cl solution at 37° C. for 15 minutes, the solution was removed and 20 μL/well of TMA Buffer and 10 μL/well of each test compound solution prepared with TMA Buffer were added to each well. The measurements were carried out by adding 200 μL/well of Na Buffer (130 mM, NaCl, 5 mM KCl, 2 mM CaCl2, 1 mM MgSO2, 1 mM NaH2PO4, 25 mM glucose, 20 mM HEPES; pH 7.4) or TMA Buffer (for base measurement), immediately placing it on FlexStation (Molecular Device) and then, after 10 minutes, measuring, it the two wavelengths of 505 nm (excitation wavelength)/530 nm (emission wavelength) (measurement value) and 440 nm (excitation wavelength)/530 nm (emission wavelength) (isosbestic point value). A NHE activity was calculated by dividing a measurement value by an isosbestic point value and a NHE1 inhibitory activity was calculated by the following equation. NHE1 inhibitory activity (%)=100×(1−(Measurement value [addition of each compound]−Base [addition of TMA Buffer])/(Control [addition of Na Buffer]−Base [addition of TMA Buffer]))
Pharmacological Test Example 2: Measurements of NHE3 Inhibitory Activities.
OK26 cells (OK (opossum kidney) cells in which human NHE3 genes are overexpressed) were used as cells for the test. The measurements were carried out in the same manner as described in Pharmacological Test Example 1 except that the measurement time was 5 minutes (at 37° C.) to calculate NHE3 inhibitory activities.

[2] = MDCK membrane permeability (trans-well); type: in vitro ADME, Canine; conditions: dog, apical pH 6.5 / basal pH 7.4, 37° C.
Description: Pharmacological Test Example 4: MDCK Membrane Permeability
1×10^6 MDCK (MADIN-DARBY Canine Kidney) cells were seeded to each well and cultivated on a trans-well for 4 days (Mixed medium; DMEM: F12=1:1). The trans-well consists of a upper chamber into which cells are seeded and a lower chamber which is separated by a porous membrane and each test compound added into the upper chamber penetrates through the porous membrane to be detected in the lower chamber. The trans-well system has been used as a model for cell membrane permeability.
Buffer solution (pH 6.5) (138 mM NaCl, 2.7 mM KCl, 25 mM D-Glucose, 20 mM MES, 1.25 mM CaCl2, 0.5 mM MgCl2; pH was adjusted with KOH) was added into the upper chamber (Apical side) while Buffer solution (pH 7.4) (138 mM NaCl, 2.7 mM KCl, 25 mM D-Glucose, 20 mM HEPES, 1.25 mM CaCl2, 0.5 mM MgCl2; pH was adjusted with KOH) was added into the lower chamber (basal side). After it was pre-incubated at 37° C. for 20 minutes, 50 μM of each test compound was added thereto and then reacted at 37° C. for 1 hour. The solutions in the upper and lower chambers were collected and the concentrations of each test compound were determined by LC/MS to calculate membrane permeability values (Pm values) by the following equation. Pm[cm/sec]=(Concentration of each test compound in the basal side×1.5 mL)/(3600 sec×1.12 cm^2×Initial concentration of the added compound)

[3] = test system: renal dysfunction model rats; experiment: Continuous administration test in renal dysfunction model rats; type: in vivo, Wistar rats
Description: Pharmacological Test Example 5: Continuous Administration Test in Renal Dysfunction Model Rats
After unilateral nephrectomy was performed on 7-week-old Wistar rats and the rats were habituated for 1 week, they were divided into 4 groups based on their body weights, Normal group, Vehicle group, 20 mg/kg of the compound of Example 7-administered group and 50 mg/kg of the compound of Example 7-administered group were assigned to 5 rats, respectively. After the rats were habituated in metabolic cages for 4 days, the test compound the compound of Example 7) dissolved in 0.5% methylcellulose solution was administered via gavage simultaneously with intraperitoneal administration of oleic acid-containing bovine serum albumin (OA-BSA) at a dose of 2 g/animal once daily for 4 days. Vehicles (0.5% methylcellulose solution) were administered to Normal group and Vehicle group instead of the test compound (the compound of Example 7). In addition, no oleic acid-containing bovine serum albumin was administered to Normal group and only unilateral nephrectomy was performed on the Normal group rats. Urine samples were collected from each rat on the last administration day to the next day of the last administration, and blood sampling and autopsy were conducted on the same day.

[4] = target: T2, NHE1 (Homo sapiens, UniProt P19634); experiment: Measurements of NHE1 inhibitory activities (HLF cells, BCECF pH recovery); type: cell-based; conditions: HLF cells (human hepatoma cell line), measured after 10 minutes; read-out: hNHE1 IC50
T2 construct: HLF cells (Human hepatoma cell line) were used as cells for the test; endogenous in cells; host or cells: HLF cells (human hepatoma cell line)
T2 sequence (P19634 whole entry): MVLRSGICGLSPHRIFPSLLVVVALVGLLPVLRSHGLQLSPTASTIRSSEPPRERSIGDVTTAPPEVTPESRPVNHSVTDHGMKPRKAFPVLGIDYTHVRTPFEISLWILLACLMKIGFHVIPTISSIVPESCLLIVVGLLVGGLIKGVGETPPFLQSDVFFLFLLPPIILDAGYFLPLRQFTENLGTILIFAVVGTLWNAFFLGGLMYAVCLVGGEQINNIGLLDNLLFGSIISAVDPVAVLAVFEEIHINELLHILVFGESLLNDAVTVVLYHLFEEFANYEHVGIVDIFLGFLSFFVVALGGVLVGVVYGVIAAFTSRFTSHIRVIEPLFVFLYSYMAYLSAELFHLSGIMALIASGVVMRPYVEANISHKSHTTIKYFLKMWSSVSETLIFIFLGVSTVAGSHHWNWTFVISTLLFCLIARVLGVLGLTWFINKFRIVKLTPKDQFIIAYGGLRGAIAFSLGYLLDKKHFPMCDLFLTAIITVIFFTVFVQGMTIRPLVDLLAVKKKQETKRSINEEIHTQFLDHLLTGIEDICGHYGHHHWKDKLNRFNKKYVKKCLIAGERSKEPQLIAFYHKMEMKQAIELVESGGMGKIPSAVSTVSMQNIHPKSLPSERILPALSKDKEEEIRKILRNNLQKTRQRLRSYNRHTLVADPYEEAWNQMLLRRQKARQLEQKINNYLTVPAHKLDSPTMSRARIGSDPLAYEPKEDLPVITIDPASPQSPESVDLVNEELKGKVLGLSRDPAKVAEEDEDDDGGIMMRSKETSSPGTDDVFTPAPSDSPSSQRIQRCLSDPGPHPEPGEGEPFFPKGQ
Description: Pharmacological Test Example 1: Measurements of NHE1 Inhibitory Activities
as §1

[5] = target: T1, human NHE3; experiment: Improved version of measurements of NHE3 inhibitory activities (OK26 ND cell lines); type: cell-based; conditions: OK26 ND cell lines (opNHE1 expression reduced by 90%), measurement time 8 minutes at 26° C.; read-out: hNHE3 IC50
Description: Pharmacological Test Example 3: Improved Version of Measurements of NHE3 Inhibitory Activities
OK26 cells express endogeneous NHE1 (opNHE1). In order to evaluate NHE3 inhibitory activities more precisely, OK26 ND cell lines in which the expression level of opNHE1 is reduced by 90% were established. Measurements of NEE inhibitory activities were carried out by using the established cell lines in the same manner as described in Pharmacological Test Example 1 except that the measurement time was 8 minutes (at 26° C.) to calculate more precise NHE3 inhibitory activities.

[6] = test compound-administered groups (20 and 50 mg/kg), 4 days, FIG. 2

pIC50 [1]	Papp A→B at 1 h, 50 μM [2] [×10⁻⁶ cm/s]	pIC50 [4]	pIC50 [5]	Structure (SMILES)	tubular damages (beta 2-microglobulin, marker for tubular damage) ([3]; 20 mg/kg and 50 mg/kg via gavage once daily for 4 days, OA-BSA i.p., unilaterally nephrectomized rats, FIG. 1)	tubular damage scores ([3]; test compound administered groups (20 and 50 mg/kg), 4 days, FIG. 3)	appearances of urinary cast (renal pathological images) [3, 6]	dilation of proximal renal tubules (renal pathological images) [3, 6]
< 5.00	2			COC(=O)c1ccc(-c2ccccc2/C=C(\C)C(=O)NC(=N)N)cc1 [Example 7, (E)-2′-(3-guanidino-2-methyl-3-oxo-propenyl)-biphenyl-4-carboxylic acid methyl ester]	Significant improvements in tubular damages	Reductions in tubular damage scores	significant reductions in appearances of urinary cast	improvements in dilation of proximal renal tubules
6.64		6.30	6.64	C/C(=C\c1ccccc1-c1ccc(O)c(O)c1)C(=O)NC(=N)N [Example 26, N-[(E)-3-(3′,4′-dihydroxy-biphenyl-2-yl)-2-methyl-acryloyl]-guanidine]				
6.21	1	5.92	6.44	CC(=O)c1cccc(-c2ccccc2/C=C(\C)C(=O)NC(=N)N)c1 [Example 15, N-[(E)-3-(3′-acetyl-biphenyl-2-yl)-2-methyl-acryloyl]guanidine]				
